Results: PubChem BioAssay AID2060332 (Molecular Pharmacology Branch, DTP, NCI, 2025)

System: LG0567-F671-PDC multi-cell spheroid viability
Test: Anticancer human tumor LG0567-F671-PDC patient-derived lung adenocarcinoma cell line growth inhibition [IpAb]
Conditions: for IC50: curve of first compound; for viability, T/C: stronger effect = lower value
Method in brief: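 Combinations with ipatasertib or abemaciclib were tested on tumour spheroids holding HUVEC (25%) and MSC (15%) alongside 60% malignant cells. Top concentration was at or near clinical Cmax (10 microM if undefined), descending in half-log steps.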

[1] = second compound 0.01 µM, first compound 0.0316 µM
[2] = second compound 0.01 µM, first compound 0.1 µM
[3] = second compound 0.01 µM, first compound 0.316 µM
[4] = second compound 0.01 µM, first compound 1 µM
[5] = second compound 0.01 µM, first compound 3.16 µM
[6] = second compound 0.01 µM, first compound 10 µM
[7] = second compound 0.0316 µM, first compound 0.0316 µM
[8] = second compound 0.0316 µM, first compound 0.1 µM
[9] = second compound 0.0316 µM, first compound 0.316 µM
[10] = second compound 0.0316 µM, first compound 1 µM
[11] = second compound 0.0316 µM, first compound 3.16 µM
[12] = second compound 0.0316 µM, first compound 10 µM
[13] = second compound 0.1 µM, first compound 0.0316 µM
[14] = second compound 0.1 µM, first compound 0.1 µM
[15] = second compound 0.1 µM, first compound 0.316 µM
[16] = second compound 0.1 µM, first compound 1 µM
[17] = second compound 0.1 µM, first compound 3.16 µM
[18] = second compound 0.1 µM, first compound 10 µM
[19] = second compound 0.316 µM, first compound 0.0316 µM
[20] = second compound 0.316 µM, first compound 0.1 µM
[21] = second compound 0.316 µM, first compound 0.316 µM
[22] = second compound 0.316 µM, first compound 1 µM
[23] = second compound 0.316 µM, first compound 3.16 µM
[24] = second compound 0.316 µM, first compound 10 µM
[25] = second compound 1 µM, first compound 0.0316 µM
[26] = second compound 1 µM, first compound 0.1 µM
[27] = second compound 1 µM, first compound 0.316 µM
[28] = second compound 1 µM, first compound 1 µM
[29] = second compound 1 µM, first compound 3.16 µM
[30] = second compound 1 µM, first compound 10 µM
[31] = second compound 0.01 µM, first compound 0.00949 µM
[32] = second compound 0.01 µM, first compound 0.03 µM
[33] = second compound 0.01 µM, first compound 0.0949 µM
[34] = second compound 0.01 µM, first compound 0.3 µM
[35] = second compound 0.0316 µM, first compound 0.00949 µM
[36] = second compound 0.0316 µM, first compound 0.03 µM
[37] = second compound 0.0316 µM, first compound 0.0949 µM
[38] = second compound 0.0316 µM, first compound 0.3 µM
[39] = second compound 0.1 µM, first compound 0.00949 µM
[40] = second compound 0.1 µM, first compound 0.03 µM
[41] = second compound 0.1 µM, first compound 0.0949 µM
[42] = second compound 0.1 µM, first compound 0.3 µM
[43] = second compound 0.316 µM, first compound 0.00949 µM
[44] = second compound 0.316 µM, first compound 0.03 µM
[45] = second compound 0.316 µM, first compound 0.0949 µM
[46] = second compound 0.316 µM, first compound 0.3 µM
[47] = second compound 1 µM, first compound 0.00949 µM
[48] = second compound 1 µM, first compound 0.03 µM
[49] = second compound 1 µM, first compound 0.0949 µM
[50] = second compound 1 µM, first compound 0.3 µM
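Note: viability read after 7 days of drug exposure.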
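Throughout, for viability, T/C: 100% = DMSO vehicle control luminescence.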

Cc1nc(NC(=O)N2CCCC2C(N)=O)sc1-c1ccnc(C(C)(C)C(F)(F)F)c1 (stereo not given) + CCN1CCN(Cc2ccc(Nc3ncc(F)c(-c4cc(F)c5nc(C)n(C(C)C)c5c4)n3)nc2)CC1
IC50 (second compound 0.01 µM): 1080 nM
IC50 (second compound 0.0316 µM): 658 nM
IC50 (second compound 0.1 µM): 387 nM
IC50 (second compound 0.316 µM): 181 nM
IC50 (second compound 1 µM): 481 nM
viability, T/C [1]: 80.2%
viability, T/C [2]: 66.6%
viability, T/C [3]: 56%
viability, T/C [4]: 54.3%
viability, T/C [5]: 43.5%
viability, T/C [6]: 32.4%
viability, T/C [7]: 51.6%
viability, T/C [8]: 75.1%
viability, T/C [9]: 57.4%
viability, T/C [10]: 44.6%
viability, T/C [11]: 41.1%
viability, T/C [12]: 33.7%
viability, T/C [13]: 57.4%
viability, T/C [14]: 56.8%
viability, T/C [15]: 49.2%
viability, T/C [16]: 46%
viability, T/C [17]: 34.6%
viability, T/C [18]: 27.5%
viability, T/C [19]: 55.5%
viability, T/C [20]: 48.1%
viability, T/C [21]: 53.5%
viability, T/C [22]: 41.1%
viability, T/C [23]: 35.5%
viability, T/C [24]: 29.6%
viability, T/C [25]: 49.5%
viability, T/C [26]: 63.5%
viability, T/C [27]: 55.4%
viability, T/C [28]: 40.5%
viability, T/C [29]: 42.5%
viability, T/C [30]: 38.3%

CC(C)(C)c1cnc(CSc2cnc(NC(=O)C3CCNCC3)s2)o1 + CCN1CCN(Cc2ccc(Nc3ncc(F)c(-c4cc(F)c5nc(C)n(C(C)C)c5c4)n3)nc2)CC1
IC50 (second compound 0.01 µM): 152 nM
IC50 (second compound 0.0316 µM): 129 nM
IC50 (second compound 0.1 µM): 106 nM
IC50 (second compound 0.316 µM): 74.2 nM
IC50 (second compound 1 µM): 52.5 nM
viability, T/C [31]: 108%
viability, T/C [32]: 118%
viability, T/C [33]: 82.8%
viability, T/C [34]: 3.32%
viability, T/C (second compound 0.01 µM, first compound 0.949 µM): 1.33%
viability, T/C (second compound 0.01 µM, first compound 3 µM): 0.84%
viability, T/C [35]: 86.5%
viability, T/C [36]: 92.3%
viability, T/C [37]: 66.8%
viability, T/C [38]: 4.66%
viability, T/C (second compound 0.0316 µM, first compound 0.949 µM): 1.42%
viability, T/C (second compound 0.0316 µM, first compound 3 µM): 0.84%
viability, T/C [39]: 62.2%
viability, T/C [40]: 81.8%
viability, T/C [41]: 55.4%
viability, T/C [42]: 2.56%
viability, T/C (second compound 0.1 µM, first compound 0.949 µM): 1.28%
viability, T/C (second compound 0.1 µM, first compound 3 µM): 0.81%
viability, T/C [43]: 56%
viability, T/C [44]: 73.7%
viability, T/C [45]: 45.9%
viability, T/C [46]: 3.08%
viability, T/C (second compound 0.316 µM, first compound 0.949 µM): 1.56%
viability, T/C (second compound 0.316 µM, first compound 3 µM): 1.05%
viability, T/C [47]: 58.5%
viability, T/C [48]: 66%
viability, T/C [49]: 37%
viability, T/C [50]: 4.69%
viability, T/C (second compound 1 µM, first compound 0.949 µM): 2.05%
viability, T/C (second compound 1 µM, first compound 3 µM): 1.1%

CC(=O)c1c(C)c2cnc(Nc3ccc(N4CCNCC4)cn3)nc2n(C2CCCC2)c1=O + CCN1CCN(Cc2ccc(Nc3ncc(F)c(-c4cc(F)c5nc(C)n(C(C)C)c5c4)n3)nc2)CC1
IC50 (second compound 0.01 µM): > 300 nM
IC50 (second compound 0.0316 µM): > 300 nM
IC50 (second compound 0.1 µM): > 300 nM
IC50 (second compound 0.316 µM): > 300 nM
IC50 (second compound 1 µM): > 300 nM
viability, T/C (second compound 0.01 µM, first compound 0.000949 µM): 74.8%
viability, T/C (second compound 0.01 µM, first compound 0.003 µM): 93.4%
viability, T/C [31]: 87.8%
viability, T/C [32]: 62.5%
viability, T/C [33]: 82.8%
viability, T/C [34]: 69.2%
viability, T/C (second compound 0.0316 µM, first compound 0.000949 µM): 83%
viability, T/C (second compound 0.0316 µM, first compound 0.003 µM): 65.1%
viability, T/C [35]: 94.1%
viability, T/C [36]: 75.2%
viability, T/C [37]: 55.4%
viability, T/C [38]: 57.4%
viability, T/C (second compound 0.1 µM, first compound 0.000949 µM): 84.4%
viability, T/C (second compound 0.1 µM, first compound 0.003 µM): 71.2%
viability, T/C [39]: 62.6%
viability, T/C [40]: 80.2%
viability, T/C [41]: 60.3%
viability, T/C [42]: 51.2%
viability, T/C (second compound 0.316 µM, first compound 0.000949 µM): 60.7%
viability, T/C (second compound 0.316 µM, first compound 0.003 µM): 51.7%
viability, T/C [43]: 67.1%
viability, T/C [44]: 49.4%
viability, T/C [45]: 56.8%
viability, T/C [46]: 50.7%
viability, T/C (second compound 1 µM, first compound 0.000949 µM): 53.4%
viability, T/C (second compound 1 µM, first compound 0.003 µM): 76.6%
viability, T/C [47]: 69%
viability, T/C [48]: 65.5%
viability, T/C [49]: 63.7%
viability, T/C [50]: 54.2%

CC1(C)CCC(CN2CCN(c3ccc(C(=O)NS(=O)(=O)c4ccc(NCC5CCOCC5)c([N+](=O)[O-])c4)c(Oc4cnc5[nH]ccc5c4)c3)CC2)=C(c2ccc(Cl)cc2)C1 + CCN1CCN(Cc2ccc(Nc3ncc(F)c(-c4cc(F)c5nc(C)n(C(C)C)c5c4)n3)nc2)CC1
IC50 (second compound 0.01 µM): 7190 nM
IC50 (second compound 0.0316 µM): 5800 nM
IC50 (second compound 0.1 µM): 5910 nM
IC50 (second compound 0.316 µM): 4880 nM
IC50 (second compound 1 µM): 4690 nM
viability, T/C [1]: 96.5%
viability, T/C [2]: 123%
viability, T/C [3]: 106%
viability, T/C [4]: 105%
viability, T/C [5]: 119%
viability, T/C [6]: 25.9%
viability, T/C [7]: 63.6%
viability, T/C [8]: 95.8%
viability, T/C [9]: 87.1%
viability, T/C [10]: 72.2%
viability, T/C [11]: 83.2%
viability, T/C [12]: 22.6%
viability, T/C [13]: 80.5%
viability, T/C [14]: 86.9%
viability, T/C [15]: 83.2%
viability, T/C [16]: 84.5%
viability, T/C [17]: 83%
viability, T/C [18]: 22.2%
viability, T/C [19]: 69.6%
viability, T/C [20]: 76.1%
viability, T/C [21]: 80.8%
viability, T/C [22]: 76.9%
viability, T/C [23]: 73.3%
viability, T/C [24]: 11.4%
viability, T/C [25]: 69.6%
viability, T/C [26]: 80.3%
viability, T/C [27]: 64%
viability, T/C [28]: 68.8%
viability, T/C [29]: 67.1%
viability, T/C [30]: 17.5%
